Data published in patent US20020045606A1, “Esters of vitamin D3 and uses thereof” (priority 1999, published 2002).

Legend:
UMR 106 cells [1] = assay: Metabolism of 1α,25(OH)2-16-ene-D3 analogs into less polar fatty acid ester metabolites in bone cells; type: in vitro ADME, rat; conditions: 10 μM analog incubated 24 h in UMR 106 cells; HPLC (FIG. 1)
Protocol: As described herein, various analogs of 1α,25(OH)2-D3, such as 1α,25(OH)2-16-ene-D3 analogs are metabolized into less polar metabolites in the rat osteosarcoma cell line UMR 106. UMR 106 cells were cultured in an humidified atmosphere at 37° C. in 95% air and 5% CO2. MacCoy's culture medium, containing 10% fetal calf serum (FCS), antibiotics (100 IU/mL penicillin and 100 μg/mL streptomycin) and […], was used. Cells became confluent ten days after seeding, and were then incubated with analog. Samples (structures shown in Table 2) of 1α,25(OH)2-16-ene-D3, 1α,25(OH)2-16-ene-3-epi-D3, 1α,25(OH)2-16-ene-20-epi-D3, 1α,25(OH)2-16-ene-20-epi-3-epi-D3, and 1α,25(OH)2-16-ene-23-yne-D3 were dissolved in ethanol to a final concentration of 10 μM and incubated in 50 mL for 24 h. Each analog was incubated in three culture bottles. Incubation was stopped by adding 10 mL methanol to each culture bottle. Culture bottles were stored at −20° C.
Lipid extraction was initiated by first adding two volumes of methanol to each culture bottle from Example I. The protein precipitate was separated from the supernatant by centrifugation at 3000 rpm at 4° C. for 15 min. The supernatant was mixed with four volumes of dichloromethane in a separatory funnel. The lower organic phase was collected and dried under nitrogen gas at 50° C. After reconstitution in 10% isopropanol/hexane, the lipid extract was analyzed by high-performance liquid chromatography (HPLC).
HPLC was performed with a Waters System Controller (Model 600E) equipped with a photodiode array detector (Model PDA 990) to monitor UV absorption at 265 nm. A Zorbax SIL 9.4×250 mm column (DuPont, Wilmington, Del.) was used for all straight phase systems. The corresponding analog was added to each lipid extract and the solutions were then subjected to a straight phase HPLC system using 10% isopropanol/hexane at a flow rate of 2 mL/min. (HPLC system I). Fractions were collected from 0 min. to 12 min. These fractions were further subjected to a straight phase HPLC system using 2% isopropanol/hexane at a flow rate of 2 mL/min. (HPLC system II).

UMR 106 cells [2] = assay: Distribution of esters and substrates between cells and media, UMR 106; type: in vitro ADME, rat; conditions: lipid extraction from media and cells separately, HPLC system I
Protocol: Peaks H2-A and H3-A were obtained and purified as described in Example II. In addition, UMR 106 cells were incubated with 1α,25(OH)2-16-ene-20-epi-D3 and 1α,25(OH)2-16-ene-20-epi-3-epi-D3, as described in Example I.
The lipid extraction was carried out from media and cells separately and together, as described in Example II. HPLC was performed with a Waters System Controller (Model 600E) equipped with a photodiode array detector (Model PDA 990) to monitor UV absorption at 265 nm. A Zorbax SIL 9.4×250 mm column (DuPont, Wilmington, Del.) was used for all straight phase systems. Each lipid extract was analyzed using HPLC system I.

| SMILES | distribution between cells and media (UMR 106 cells [2]) | amount of less polar fatty acid ester metabolites produced (UMR 106 cells [1]) |
| --- | --- | --- |
| C=C1/C(=C\C=C2/CCC[C@]3(C)C([C@@H](C)CC#CC(C)(C)O)=CCC23)C[C@@H](O)C[C@@H]1O (stereo partly drawn) [1α,25(OH)2-16-ene-23-yne-D3] | – | reduced |
| C=C1/C(=C\C=C2/CCC[C@]3(C)C([C@H](C)CCCC(C)(C)O)=CCC23)C[C@@H](O)C[C@@H]1O (stereo partly drawn) [1α,25(OH)2-16-ene-D3] | – | production of the less polar fatty acid ester metabolites |
| C=C1/C(=C\C=C2/CCC[C@]3(C)C([C@H](C)CCCC(C)(C)O)=CCC23)C[C@H](O)C[C@@H]1O (stereo partly drawn) [1α,25(OH)2-16-ene-3-epi-D3] | – | slightly greater amounts of one of the less polar metabolites |

Second part, led by results:

| distribution between cells and media (UMR 106 cells [2]) | SMILES | amount of less polar fatty acid ester metabolites produced (UMR 106 cells [1]) |
| --- | --- | --- |
| distributed primarily in the media | C=C1/C(=C\C=C2/CCC[C@]3(C)C([C@@H](C)CCCC(C)(C)O)=CCC23)C[C@@H](O)C[C@@H]1O (stereo partly drawn) [1α,25(OH)2-16-ene-20-epi-D3] | a greater increase in the amount of the less polar fatty acid ester metabolites |
| distributed primarily in the media | C=C1/C(=C\C=C2/CCC[C@]3(C)C([C@@H](C)CCCC(C)(C)O)=CCC23)C[C@H](O)C[C@@H]1O (stereo partly drawn) [1α,25(OH)2-16-ene-20-epi-3-epi-D3] | enhanced even further |
